PubChem BioAssay AID248 (DTP/NCI, 2004)
Where “and” joins values, the source holds several entries; their conditions need not be identical. Equal entries are not always repeated. Toxic doses and inconclusive results are not listed. Cut-off read from the data, not from the text of the source: active = T/C of 150% or more; inactive = T/C below 125%.

System: L1210 leukemia ip in BDF1 mice, survival T/C
Assay: NCI In Vivo Anticancer Drug Screen. Data for tumor model L1210 Leukemia (intraperitoneal) in B6D2F1 (BDF1) mice
Conditions: endpoint: mean survival time, higher = longer survival
How it was run: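 Antitumor effect is assessed in tumor-bearing animals. Survival in the compound arm is compared with a vehicle-dosed control arm and expressed as their quotient.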

[1] = dose: 100.0 mg/kg/injection, schedule: Q01DX009 (ip), vehicle: Klucel (hydroxypropylcellulose) (HPC)
[2] = dose: 200.0 mg/kg/injection, schedule: Q01DX009 (ip), vehicle: Klucel (hydroxypropylcellulose) (HPC)
[3] = dose: 400.0 mg/kg/injection, schedule: Q01DX009 (ip), vehicle: Klucel (hydroxypropylcellulose) (HPC)
[4] = dose: 100.0 mg/kg/injection, schedule: Q04DX002 (ip), vehicle: saline
[5] = dose: 100.0 mg/kg/injection, schedule: Q01DX001 (ip), vehicle: saline with Tween-80
[6] = dose: 100.0 mg/kg/injection, schedule: Q01DX009 (ip), vehicle: saline with Tween-80
[7] = dose: 200.0 mg/kg/injection, schedule: Q01DX001 (ip), vehicle: saline with Tween-80
[8] = dose: 200.0 mg/kg/injection, schedule: Q01DX009 (ip), vehicle: saline with Tween-80
[9] = dose: 400.0 mg/kg/injection, schedule: Q01DX001 (ip), vehicle: saline with Tween-80
[10] = dose: 100.0 mg/kg/injection, schedule: Q04DX003 (ip), vehicle: saline with Tween-80
[11] = dose: 200.0 mg/kg/injection, schedule: Q04DX003 (ip), vehicle: saline with Tween-80
[12] = dose: 400.0 mg/kg/injection, schedule: Q04DX003 (ip), vehicle: saline with Tween-80
[13] = dose: 100.0 mg/kg/injection, schedule: Q04DX002 (ip), vehicle: saline with Tween-80
[14] = dose: 200.0 mg/kg/injection, schedule: Q04DX002 (ip), vehicle: saline with Tween-80
[15] = dose: 400.0 mg/kg/injection, schedule: Q04DX002 (ip), vehicle: saline with Tween-80
[16] = dose: 50.0 mg/kg/injection, schedule: Q01DX009 (ip), vehicle: Klucel (hydroxypropylcellulose) (HPC)
[17] = dose: 100.0 mg/kg/injection, schedule: Q04DX003 (ip), vehicle: Klucel (hydroxypropylcellulose) (HPC)
[18] = dose: 200.0 mg/kg/injection, schedule: Q04DX003 (ip), vehicle: Klucel (hydroxypropylcellulose) (HPC)
[19] = dose: 100.0 mg/kg/injection, schedule: Q01DX001 (ip), vehicle: saline
[20] = dose: 200.0 mg/kg/injection, schedule: Q01DX001 (ip), vehicle: saline
[21] = dose: 400.0 mg/kg/injection, schedule: Q01DX001 (ip), vehicle: saline

Measured: T/C

Cc1ccc([N+](=O)[O-])cc1NC(=O)N(C1CCCCC1)C1CCCCC1
inactive: [1] 95 % of control | [2] 97 % of control | [3] 97 % of control

Cc1ccc(Cl)cc1NC(=O)Oc1ccc(C(C)(C)C)cc1Br
inactive: [1] 91 % of control | [2] 100 % of control | [3] 108 % of control

CCN1C(=O)C(Cl)=C(Cl)C1=O
inactive: dose: 1.56 mg/kg/injection, schedule: Q01DX009 (ip), vehicle: saline with Tween-80 94 % of control | dose: 3.13 mg/kg/injection, schedule: Q01DX009 (ip), vehicle: saline with Tween-80 91 % of control | dose: 6.25 mg/kg/injection, schedule: Q01DX009 (ip), vehicle: saline with Tween-80 92 % of control and 87 % of control

O=S(=O)(O)c1ccc(CCCCCCCCCl)cc1
inactive: [4] 87 % of control | dose: 200.0 mg/kg/injection, schedule: Q04DX002 (ip), vehicle: saline 93 % of control

O=c1ccn(-c2ccccc2)c(=S)[nH]1
inactive: [5] 96 % of control | [6] 95 % of control | [7] 96 % of control | [8] 95 % of control | [9] 100 % of control

C1N2CN3CN1CN(C2)C3 (tested in a mixture with another compound)
inactive: [10] 107 % of control | [11] 103 % of control | [12] 102 % of control

O=C(/C=C/c1ccccc1)NC(=S)Nc1cc(C(F)(F)F)ccc1Cl
inactive: [5] 103 % of control | [6] 92 % of control and 86 % of control | [13] 98 % of control and 90 % of control | [10] 100 % of control | [7] 95 % of control | [8] 92 % of control and 90 % of control | [14] 93 % of control and 114 % of control | [11] 94 % of control | [9] 101 % of control | dose: 400.0 mg/kg/injection, schedule: Q01DX009 (ip), vehicle: saline with Tween-80 95 % of control and 89 % of control | [15] 95 % of control and 101 % of control

S=C(S)N1CCC(CCCC2CCN(C(=S)S)CC2)CC1
inactive: [6] 88 % of control | [10] 100 % of control | [8] 88 % of control | [11] 89 % of control | [12] 105 % of control

Cc1c(C(=O)CCl)c(=O)n(-c2ccccc2)n1C
inactive: [16] 100 % of control | [1] 100 % of control | [17] 95 % of control | [18] 101 % of control

CCN(CC)/N=C/CC(C)Nc1ccnc2cc(Cl)ccc12 (stereo not drawn)
inactive: dose: 3.12 mg/kg/injection, schedule: Q01DX009 (ip), vehicle: acetone 92 % of control | dose: 6.25 mg/kg/injection, schedule: Q01DX009 (ip), vehicle: acetone 97 % of control | dose: 12.5 mg/kg/injection, schedule: Q04DX003 (ip), vehicle: saline 93 % of control

[N-]=[N+]=Nc1c(N=[N+]=[N-])c(NS(=O)(=O)c2ccccc2)c2ccccc2c1NS(=O)(=O)c1ccccc1
inactive: [13] 87 % of control | [14] 97 % of control | [15] 97 % of control

CC(CC(C)(C)C(C)(C)C)C(C)(C)C (stereo not drawn)
inactive: [19] 90 % of control | [20] 100 % of control | [21] 107 % of control

CN(C)c1ncnc2nsnc12
inactive: [10] 100 % of control

CCCN(CCC)c1ccc(SC#N)cc1
inactive: [19] 98 % of control | [20] 95 % of control

COc1ccc2c(c1)sc(/C=C/c1ccc(O)c3ncccc13)[n+]2C
inactive: dose: 75.0 mg/kg/injection, schedule: Q01DX001 (ip), vehicle: saline 111 % of control | dose: 150.0 mg/kg/injection, schedule: Q01DX001 (ip), vehicle: saline 110 % of control | dose: 300.0 mg/kg/injection, schedule: Q01DX001 (ip), vehicle: saline 117 % of control

O=C(COc1ccccc1)Nc1ccc(Cl)cc1
inactive: [1] 89 % of control | [2] 95 % of control | [3] 90 % of control

COC(=O)c1cc(C)c(C)cc1N
inactive: [19] 102 % of control | [20] 96 % of control | [21] 93 % of control

O=C(Nc1ccc(F)cc1)Nc1ccc(I)cc1
inactive: [1] 100 % of control and 92 % of control | [2] 100 % of control | [3] 96 % of control and 90 % of control

OCC1OC(c2ccccc2)OC1C1OC(c2ccccc2)OC1CO (stereo not drawn)
inactive: [19] 98 % of control | [20] 96 % of control | [21] 98 % of control

CC(C)(N)COC(=O)c1ccc([N+](=O)[O-])cc1
inactive: dose: 50.0 mg/kg/injection, schedule: Q01DX009 (ip), vehicle: acetone 101 % of control | dose: 100.0 mg/kg/injection, schedule: Q01DX009 (ip), vehicle: acetone 101 % of control | dose: 200.0 mg/kg/injection, schedule: Q01DX009 (ip), vehicle: acetone 95 % of control

NC(CSS(=O)(=O)O)=NCc1ccncc1
inactive: dose: 25.0 mg/kg/injection, schedule: Q04DX002 (ip), vehicle: saline 95 % of control | dose: 50.0 mg/kg/injection, schedule: Q04DX002 (ip), vehicle: saline 103 % of control | [4] 123 % of control

CC(=O)Oc1c2c(c(CC=C(C)C)c3c1C(=O)C1=CC4CC5C(C)(C)OC(C/C=C(/C)C(=O)O)(C4=O)C15O3)OC(C)(CCC=C(C)C)C=C2 (stereo not drawn)
inactive: [16] 109 % of control | dose: 50.0 mg/kg/injection, schedule: Q04DX003 (ip), vehicle: Klucel (hydroxypropylcellulose) (HPC) 103 % of control | dose: 100.0 mg/kg/injection, schedule: Q01DX001 (ip), vehicle: Klucel (hydroxypropylcellulose) (HPC) 106 % of control | [1] 91 % of control | [17] 97 % of control | dose: 200.0 mg/kg/injection, schedule: Q01DX001 (ip), vehicle: Klucel (hydroxypropylcellulose) (HPC) 114 % of control | [18] 105 % of control | dose: 400.0 mg/kg/injection, schedule: Q01DX001 (ip), vehicle: Klucel (hydroxypropylcellulose) (HPC) 110 % of control

O=C(O)c1ccc([N+](=O)[O-])cc1C(=O)O
inactive: dose: 87.5 mg/kg/injection, schedule: Q01DX001 (ip), vehicle: saline 104 % of control | dose: 100.0 mg/kg/injection, schedule: Q01DX009 (ip), vehicle: saline 100 % of control | [17] 96 % of control | dose: 175.0 mg/kg/injection, schedule: Q01DX001 (ip), vehicle: saline 100 % of control | dose: 200.0 mg/kg/injection, schedule: Q01DX009 (ip), vehicle: saline 93 % of control | [18] 87 % of control | dose: 350.0 mg/kg/injection, schedule: Q01DX001 (ip), vehicle: saline 108 % of control

CC(C)CCCC(C)C1CCC2C3CC(=O)NC4CC(Cl)CCC4(C)C3CCC12C (stereo not drawn)
inactive: [19] 89 % of control | dose: 100.0 mg/kg/injection, schedule: Q04DX003 (ip), vehicle: saline 86 % of control | [20] 93 % of control | [21] 91 % of control

COC(=O)NCC1OC(n2cnc3c(N)ncnc32)C(O)C1O (stereo not drawn)
inactive: dose: 100.0 mg/kg/injection, schedule: Q01DX005 (ip), vehicle: saline 92 % of control | dose: 200.0 mg/kg/injection, schedule: Q01DX005 (ip), vehicle: saline 94 % of control

CC(=O)Oc1cn(C)c2c1C(=O)CC(C)(C)C2
inactive: dose: 75.0 mg/kg/injection, schedule: Q04DX002 (ip), vehicle: Klucel (hydroxypropylcellulose) (HPC) 94 % of control | dose: 150.0 mg/kg/injection, schedule: Q04DX002 (ip), vehicle: Klucel (hydroxypropylcellulose) (HPC) 105 % of control | dose: 300.0 mg/kg/injection, schedule: Q04DX002 (ip), vehicle: Klucel (hydroxypropylcellulose) (HPC) 97 % of control

N=C(N)c1cccc(NC(=O)Nc2cccc(C(=N)N)c2)c1
inactive: dose: 15.0 mg/kg/injection, schedule: Q01DX Z (ip), vehicle: saline 104 % of control | dose: 30.0 mg/kg/injection, schedule: Q01DX Z (ip), vehicle: saline 104 % of control
